Experimental data: ChEMBL document CHEMBL1955806, “Design, synthesis, single-crystal and preliminary antitumor activity of novel arenesulfonylimidazolidin-2-ones” (2012)

What was measured:
Format in all cases: functional
[1] = system: HOP-92; experiment: Growth inhibition of human HOP92 cells at 10 uM after 48 hrs by sulforhodamine B assay; settings: HOP-92, 48 h, read-out: GI
[2] = system: NCI-H226; experiment: Growth inhibition of human NCI-H226 cells at 10 uM after 48 hrs by sulforhodamine B assay; settings: NCI-H226, 48 h, read-out: GI
[3] = system: NCI-H23; experiment: Growth inhibition of human NCI-H23 cells at 10 uM after 48 hrs by sulforhodamine B assay; settings: NCI-H23, 48 h, read-out: GI
[4] = system: NCI-H322M; experiment: Growth inhibition of human NCI-H322M cells at 10 uM after 48 hrs by sulforhodamine B assay; settings: read-out: GI
[5] = system: NCI-H460; experiment: Growth inhibition of human NCI-H460 cells at 10 uM after 48 hrs by sulforhodamine B assay; settings: NCI-H460, 48 h, read-out: GI
[6] = system: NCI-H522; experiment: Growth inhibition of human NCI-H522 cells at 10 uM after 48 hrs by sulforhodamine B assay; settings: NCI-H522, 48 h, read-out: GI
[7] = system: HCC 2998; experiment: Growth inhibition of human HCC2998 cells at 10 uM after 48 hrs by sulforhodamine B assay; settings: HCC 2998, 48 h, read-out: GI
[8] = system: HCT-116; experiment: Growth inhibition of human HCT116 cells at 10 uM after 48 hrs by sulforhodamine B assay; settings: HCT-116, 48 h, read-out: GI
[9] = system: HT-29; experiment: Growth inhibition of human HT-29 cells at 10 uM after 48 hrs by sulforhodamine B assay; settings: HT-29, 48 h, read-out: GI
[10] = system: KM12; experiment: Growth inhibition of human KM12 cells at 10 uM after 48 hrs by sulforhodamine B assay; settings: KM12, 48 h, read-out: GI
[11] = system: SW-620; experiment: Growth inhibition of human SW620 cells at 10 uM after 48 hrs by sulforhodamine B assay; settings: SW-620, 48 h, read-out: GI
[12] = system: Hs-578T; experiment: Growth inhibition of human Hs578T cells at 10 uM after 48 hrs by sulforhodamine B assay; settings: read-out: GI
[13] = system: MCF7; experiment: Growth inhibition of human MCF7 cells at 10 uM after 48 hrs by sulforhodamine B assay; settings: MCF7, 48 h, read-out: GI
[14] = system: T47D; experiment: Growth inhibition of human T47D cells at 10 uM after 48 hrs by sulforhodamine B assay; settings: read-out: GI
[15] = system: IGROV-1; experiment: Growth inhibition of human IGROV1 cells at 10 uM after 48 hrs by sulforhodamine B assay; settings: IGROV-1, 48 h, read-out: GI
[16] = system: OVCAR-3; experiment: Growth inhibition of human OVCAR3 cells at 10 uM after 48 hrs by sulforhodamine B assay; settings: OVCAR-3, 48 h, read-out: GI
[17] = system: OVCAR-4; experiment: Growth inhibition of human OVCAR4 cells at 10 uM after 48 hrs by sulforhodamine B assay; settings: OVCAR-4, 48 h, read-out: GI
[18] = system: OVCAR-5; experiment: Growth inhibition of human OVCAR5 cells at 10 uM after 48 hrs by sulforhodamine B assay; settings: OVCAR-5, 48 h, read-out: GI
[19] = system: OVCAR-8; experiment: Growth inhibition of human OVCAR8 cells at 10 uM after 48 hrs by sulforhodamine B assay; settings: OVCAR-8, 48 h, read-out: GI
[20] = system: CCRF-CEM; experiment: Growth inhibition of human CCRF-CEM cells at 10 uM after 48 hrs by sulforhodamine B assay; settings: read-out: GI
[21] = system: HL-60(TB); experiment: Growth inhibition of human HL-60(TB) cells at 10 uM after 48 hrs by sulforhodamine B assay; settings: HL-60, 48 h, read-out: GI
[22] = system: MOLT-4; experiment: Growth inhibition of human MOLT4 cells at 10 uM after 48 hrs by sulforhodamine B assay; settings: MOLT-4, 48 h, read-out: GI
[23] = system: RPMI-8226; experiment: Growth inhibition of human RPMI8226 cells at 10 uM after 48 hrs by sulforhodamine B assay; settings: RPMI-8226, 48 h, read-out: GI
[24] = system: SR; experiment: Growth inhibition of human SR cells at 10 uM after 48 hrs by sulforhodamine B assay; settings: read-out: GI
[25] = system: A498; experiment: Growth inhibition of human A498 cells at 10 uM after 48 hrs by sulforhodamine B assay; settings: A498, 48 h, read-out: GI
[26] = system: ACHN; experiment: Growth inhibition of human ACHN cells at 10 uM after 48 hrs by sulforhodamine B assay; settings: read-out: GI
[27] = system: RXF 393; experiment: Growth inhibition of human RXF393 cells at 10 uM after 48 hrs by sulforhodamine B assay; settings: RXF 393, 48 h, read-out: GI
[28] = system: SN12C; experiment: Growth inhibition of human SN12C cells at 10 uM after 48 hrs by sulforhodamine B assay; settings: read-out: GI
[29] = system: TK-10; experiment: Growth inhibition of human TK10 cells at 10 uM after 48 hrs by sulforhodamine B assay; settings: TK-10, 48 h, read-out: GI
[30] = system: UO-31; experiment: Growth inhibition of human UO31 cells at 10 uM after 48 hrs by sulforhodamine B assay; settings: UO-31, 48 h, read-out: GI
[31] = system: LOX IMVI; experiment: Growth inhibition of human LOXIMVI cells at 10 uM after 48 hrs by sulforhodamine B assay; settings: read-out: GI
[32] = system: SK-MEL-2; experiment: Growth inhibition of human SK-MEL-2 cells at 10 uM after 48 hrs by sulforhodamine B assay; settings: SK-MEL-2, 48 h, read-out: GI
[33] = system: SK-MEL-28; experiment: Growth inhibition of human SK-MEL-28 cells at 10 uM after 48 hrs by sulforhodamine B assay; settings: SK-MEL-28, 48 h, read-out: GI
[34] = system: UACC-257; experiment: Growth inhibition of human UACC257 cells at 10 uM after 48 hrs by sulforhodamine B assay; settings: UACC-257, 48 h, read-out: GI
[35] = system: SF-268; experiment: Growth inhibition of human SF268 cells at 10 uM after 48 hrs by sulforhodamine B assay; settings: SF-268, 48 h, read-out: GI
[36] = system: SF-295; experiment: Growth inhibition of human SF295 cells at 10 uM after 48 hrs by sulforhodamine B assay; settings: SF-295, 48 h, read-out: GI
[37] = system: SF-539; experiment: Growth inhibition of human SF539 cells at 10 uM after 48 hrs by sulforhodamine B assay; settings: SF-539, 48 h, read-out: GI
[38] = system: SNB-19; experiment: Growth inhibition of human SNB19 cells at 10 uM after 48 hrs by sulforhodamine B assay; settings: SNB-19, 48 h, read-out: GI
[39] = system: SNB-75; experiment: Growth inhibition of human SNB75 cells at 10 uM after 48 hrs by sulforhodamine B assay; settings: SNB-75, 48 h, read-out: GI
[40] = system: U-251; experiment: Growth inhibition of human U251 cells at 10 uM after 48 hrs by sulforhodamine B assay; settings: U-251, 48 h, read-out: GI

CO[C@@H]1[C@@H](OC)N(S(=O)(=O)c2ccc(Cl)cc2)C(=O)N1S(=O)(=O)c1ccc(Cl)cc1 (relative stereo)
inhibition of growth at 10 µM [1]: 49.9% | inhibition of growth at 10 µM [2]: 4.24% | inhibition of growth at 10 µM [3]: 8.09% | inhibition of growth at 10 µM [4]: 14.7% | inhibition of growth at 10 µM [5]: -1.36% | inhibition of growth at 10 µM [6]: 26.7% | inhibition of growth at 10 µM [7]: 5.43% | inhibition of growth at 10 µM [8]: 33.1% | inhibition of growth at 10 µM [9]: 16% | inhibition of growth at 10 µM [10]: 3.47% | inhibition of growth at 10 µM [11]: 1.4% | inhibition of growth at 10 µM [12]: -4.94% | inhibition of growth at 10 µM [13]: 16% | inhibition of growth at 10 µM [14]: 9.2% | inhibition of growth at 10 µM [15]: 23.1% | inhibition of growth at 10 µM [16]: -4.48% | inhibition of growth at 10 µM [17]: 21.3% | inhibition of growth at 10 µM [18]: 8.25% | inhibition of growth at 10 µM [19]: 9.39% | inhibition of growth at 10 µM [20]: 15.5% | inhibition of growth at 10 µM [21]: 3.82% | inhibition of growth at 10 µM [22]: 43.5% | inhibition of growth at 10 µM [23]: 21.9% | inhibition of growth at 10 µM [24]: 34.7% | inhibition of growth at 10 µM [25]: 4.59% | inhibition of growth at 10 µM [26]: 9.71% | inhibition of growth at 10 µM [27]: -11.5% | inhibition of growth at 10 µM [28]: 14.4% | inhibition of growth at 10 µM [29]: 7.51% | inhibition of growth at 10 µM [30]: 39.4% | inhibition of growth at 10 µM [31]: 5.58% | inhibition of growth at 10 µM [32]: 13.1% | inhibition of growth at 10 µM [33]: -7.4% | inhibition of growth at 10 µM [34]: -11.6% | inhibition of growth at 10 µM [35]: 1.84% | inhibition of growth at 10 µM [36]: 34% | inhibition of growth at 10 µM [37]: -15.2% | inhibition of growth at 10 µM [38]: 2.72% | inhibition of growth at 10 µM [39]: 19.7% | inhibition of growth at 10 µM [40]: 6.07%
